≈ marks a conversion by molar mass, not a printed value. One block for each compound: values may come before it.
Experiments:
P. gingivalis NCTC 11834 [1] = experiment: Minimum inhibitory concentration (MIC) assay; type: cell-based, Porphyromonas gingivalis; settings: Table 7
Experimental: (§1) P. gingivalis strains were cultured and maintained on Wilkins-Chalgren Anaerobe Medium (agar and broth) at pH 7.0; all cultures were incubated anaerobically at 37° C. for 5-7 days. This is a standard international method for quantitatively assessing the antimicrobial activity of a compound in a liquid medium. The method used a sterile 96-well microtitre plate, capable of holding about 200 μl of liquid per well. […] The culture medium was as described above. The wells were inoculated with a liquid suspension of freshly grown micro-organism and incubated under the conditions described above. After incubation, the microtitre plate was examined visually (with the aid of a light box) for cloudiness in each well, which would indicate microbial growth. The MIC value was recorded as the lowest concentration of test compound required to inhibit microbial growth, ie the lowest concentration for which the liquid in the well remained clear. The assays were conducted in duplicate (minimum) and included both negative (culture medium with no micro-organisms) and positive (culture medium plus diluting solvent plus micro-organism) controls.

P. gingivalis NCTC 11834 [2] = experiment: Minimum bactericidal concentration (MBC) assay; type: cell-based, Porphyromonas gingivalis; settings: Table 7
Experimental: P. gingivalis strains were cultured and maintained on Wilkins-Chalgren Anaerobe Medium (agar and broth) at pH 7.0; all cultures were incubated anaerobically at 37° C. for 5-7 days.
(§2) This assay, normally carried out after an MIC assay, determines the minimum concentration of a compound that is lethal to the micro-organism being tested.
(§3) These samples were then individually sub-cultured on antibiotic-free agar medium, under the incubation conditions described above. Following incubation they were examined visually for microbial growth.
(§4) The ratio of MIC to MBC should ideally be as close to 1 as possible.

S. mutans ATCC 25175 [3] = experiment: Minimum inhibitory concentration (MIC) assay; type: cell-based, Streptococcus mutans; settings: Table 8
Experimental: as §1, with “S. mutans was” for “P. gingivalis strains were”, “7.0 supplemented with 1 g/L glucose;” for “7.0;”, “incubated” for “incubated anaerobically”, “48 hours in an atmosphere containing 5% CO2. For the formation of biofilms in biofilm disruption assays, however, S. mutans was grown in brain-heart infusion broth supplemented with 5% sucrose.” for “5-7 days.”

S. mutans ATCC 25175 [4] = experiment: Minimum bactericidal concentration (MBC) assay; type: cell-based, Streptococcus mutans; settings: Table 8
Experimental: S. mutans was cultured and maintained on Wilkins-Chalgren Anaerobe Medium (agar and broth) at pH 7.0 supplemented with 1 g/L glucose; all cultures were incubated at 37° C. for 48 hours in an atmosphere containing 5% CO2. For the formation of biofilms in biofilm disruption assays, however, S. mutans was grown in brain-heart infusion broth supplemented with 5% sucrose.
as §2, §3, §4

Structure (SMILES): CCC(C)(C)c1cc(O)c(C(C)(C)CC)cc1O [2,5-di-t-pentyl-p-hydroquinone]
MIC (P. gingivalis NCTC 11834 [1]): 3.9 µg/mL (≈ 15.6 µM)
MBC (P. gingivalis NCTC 11834 [2]): 3.9 µg/mL (≈ 15.6 µM)
MIC/MBC ratio (P. gingivalis NCTC 11834 [2]): 1
MIC (S. mutans ATCC 25175 [3]): 125 µg/mL (≈ 499 µM)
MBC (S. mutans ATCC 25175 [4]): 250 µg/mL (≈ 998 µM)
MIC/MBC ratio (S. mutans ATCC 25175 [4]): 0.5

Structure (SMILES): CCc1cc(O)ccc1O [2-ethyl-p-hydroquinone]
MIC (P. gingivalis NCTC 11834 [1]): 0.98 µg/mL (≈ 7.09 µM)
MBC (P. gingivalis NCTC 11834 [2]): 1.95 µg/mL (≈ 14.1 µM)
MIC/MBC ratio (P. gingivalis NCTC 11834 [2]): 0.5
MIC (S. mutans ATCC 25175 [3]): 31.2 µg/mL (≈ 226 µM)
MBC (S. mutans ATCC 25175 [4]): 125 µg/mL (≈ 905 µM)
MIC/MBC ratio (S. mutans ATCC 25175 [4]): 0.25

Structure (SMILES): CC(C)(C)c1cc(O)c(C(C)(C)C)cc1O [2,5-di-t-butyl-p-hydroquinone]
MIC (P. gingivalis NCTC 11834 [1]): 15.6 µg/mL (≈ 70.2 µM)
MBC (P. gingivalis NCTC 11834 [2]): 15.6 µg/mL (≈ 70.2 µM)
MIC/MBC ratio (P. gingivalis NCTC 11834 [2]): 1
MIC (S. mutans ATCC 25175 [3]): 250 µg/mL (≈ 1120 µM)
MBC (S. mutans ATCC 25175 [4]): > 250 µg/mL
MIC/MBC ratio (S. mutans ATCC 25175 [4]): <0.5

Continued, in another order:

MIC (P. gingivalis NCTC 11834 [1]): 0.98 µg/mL (≈ 6.26 µM)
MIC (S. mutans ATCC 25175 [3]): 62.5 µg/mL (≈ 399 µM)
Structure (SMILES): CC1=CC(=O)C(Cl)=CC1=O [2-chloro-5-methyl-p-benzoquinone]
MBC (P. gingivalis NCTC 11834 [2]): 1.95 µg/mL (≈ 12.5 µM)
MIC/MBC ratio (P. gingivalis NCTC 11834 [2]): 0.5
MBC (S. mutans ATCC 25175 [4]): 125 µg/mL (≈ 798 µM)
MIC/MBC ratio (S. mutans ATCC 25175 [4]): 0.5

MIC (P. gingivalis NCTC 11834 [1]): < 0.49 µg/mL
MIC (S. mutans ATCC 25175 [3]): 1.95 µg/mL (≈ 11.7 µM)
Structure (SMILES): Cc1cc(O)c(C(C)C)cc1O [Thymohydroquinone, thymohydroquinone]
MBC (P. gingivalis NCTC 11834 [2]): 0.98 µg/mL (≈ 5.9 µM)
MIC/MBC ratio (P. gingivalis NCTC 11834 [2]): <0.5
MBC (S. mutans ATCC 25175 [4]): 250 µg/mL (≈ 1500 µM)
MIC/MBC ratio (S. mutans ATCC 25175 [4]): 0.008

MIC (P. gingivalis NCTC 11834 [1]): 0.49 µg/mL (≈ 2.98 µM)
MIC (S. mutans ATCC 25175 [3]): 3.9 µg/mL (≈ 23.8 µM)
Structure (SMILES): CC1=CC(=O)C(C(C)C)=CC1=O [Thymoquinone, thymoquinone]
MBC (P. gingivalis NCTC 11834 [2]): 0.98 µg/mL (≈ 5.97 µM)
MIC/MBC ratio (P. gingivalis NCTC 11834 [2]): 0.5
MBC (S. mutans ATCC 25175 [4]): > 250 µg/mL
MIC/MBC ratio (S. mutans ATCC 25175 [4]): <0.0156

From patent US20100310478A1, “SUBSTITUTED BENZOQUINONES AND HYDROQUINONES IN THE TREATMENT OF PERIODONTAL DISEASES” (priority 2007, published 2010)
